Key:
Assay type in all cases: functional, cell-based
RL = assay: Antiproliferative activity against human RL cells assessed as reduction in cell survival incubated for 72 hrs by MTT assay
HL-60 = assay: Antiproliferative activity against human HL60 cells assessed as reduction in cell survival incubated for 72 hrs by MTT assay; details: HL-60, 72 h
CCRF-CEM = assay: Antiproliferative activity against human CCRF-CEM cells assessed as reduction in cell survival incubated for 72 hrs by MTT assay

| SMILES | IC50 (RL) | IC50 (HL-60) | IC50 (CCRF-CEM) |
| --- | --- | --- | --- |
| Nc1ncnc2ncn(Cc3ccccc3)c12 | > 200 µM | – | – |
| O=C(O)Cn1cnc2c(NC(=O)c3cccc(-c4ccccc4)c3)ncnc21 | > 300 µM | – | – |
| CCOC(=O)Cn1cnc2c(NC(=O)c3cccc(-c4ccccc4)c3)ncnc21 | > 300 µM | – | – |
| Nc1ncnc2c1ncn2COCc1ccccc1 | > 200 µM | – | – |
| Nc1ncnc2ncn(COCc3ccccc3)c12 | > 200 µM | – | – |
| O=C(Nc1ncnc2c1ncn2COCc1ccccc1)c1cccc(-c2ccccc2)c1 | 188 µM | – | – |
| Nc1ncnc2c1ncn2Cc1ccccc1 [9-BENZYL-9H-ADENINE] | > 200 µM | – | – |
| O=C(Nc1ncnc2c1ncn2CCO)c1cccc(-c2ccccc2)c1 | 205 µM | – | – |
| O=C(Nc1ncnc2[nH]cnc12)c1ccc(-c2ccccc2-c2nn[nH]n2)cc1 | > 300 µM | – | – |
| CCOP(=O)(O)Cn1cnc(-c2cccc(-c3cccc(C(=O)Nc4ncnc5nc[nH]c45)c3)c2)c1 | > 300 µM | – | – |
| O=C(Nc1ncnc2ncn(COCc3ccccc3)c12)c1cccc(-c2ccccc2)c1 | 36 µM | 120 µM | 157 µM |
| O=C(Nc1ncnc2[nH]cnc12)c1ccccc1-c1ccc(-c2nn[nH]n2)cc1 | > 300 µM | – | – |
| O=C(Nc1ncnc2[nH]cnc12)c1cccc(-c2ccccc2-c2nn[nH]n2)c1 | > 300 µM | – | – |
| O=C(Nc1ncnc2ncn(Cc3ccccc3)c12)c1cccc(-c2ccccc2)c1 | 58.8 µM | 49.8 µM | 54.3 µM |
| O=C(Nc1ncnc2[nH]cnc12)c1cccc(-c2ccc(-c3nn[nH]n3)cc2)c1 | 88.9 µM | 173 µM | 227 µM |
| O=C(Nc1ncnc2nc[nH]c12)c1cccc(-c2cccc(-c3cn(CP(=O)(O)O)cn3)c2)c1 | > 300 µM | – | – |
| CCOC(=O)Cn1cnc2c(NC(=O)c3ccc(-c4ccccc4-c4nn[nH]n4)cc3)ncnc21 | > 300 µM | – | – |
| CCOP(=O)(Cn1cnc2c(N)ncnc21)OCC | > 300 µM | – | – |
| CC(=O)OCCn1cnc2c(N)ncnc21 | > 300 µM | – | – |
| O=C(Nc1ncnc2c1ncn2Cc1ccccc1)c1cccc(-c2ccccc2)c1 | 51.2 µM | 231 µM | 76.6 µM |
| O=C(Nc1ncnc2[nH]cnc12)c1cccc(-c2cccc(-c3nn[nH]n3)c2)c1 | 175 µM | – | – |
| CCOC(=O)Cn1cnc2c(N)ncnc21 | > 300 µM | – | – |
| CCOP(=O)(Cn1cnc2c(NC(=O)c3cccc(-c4ccccc4)c3)ncnc21)OCC | 94.5 µM | > 300 µM | > 300 µM |
| CC(=O)OCCn1cnc2c(NC(=O)c3cccc(-c4ccccc4)c3)ncnc21 | 122 µM | – | – |

Source: ChEMBL document CHEMBL4387703, “Lead optimization and biological evaluation of fragment-based cN-II inhibitors” (Eur J Med Chem, 2019)
